Results reported in patent publication US5208227A, “Method, compositions, and compounds for modulating brain excitability” (priority 1991, dated 1993).

What was measured:
[1] = test system: GBR complex ([35S]TBPS site); experiment: dissociation kinetics of [35S]TBPS in cortical P2 homogenates; format: binding, rat; settings: for effect on dissociation mechanism/kinetics of [35S]TBPS (in words): pentobarbital 30 micromolar, alphaxalone 300 nanomolar, 5-alpha-pregnan-3-alpha-hydroxy-20-one 20 nanomolar
Protocol: An assay was performed to determine the effect of pentobarbital on the dissociation kinetics of [^35 S]TBPS in rat cerebral cortical membranes. This assay was performed in accordance with the procedures outlined above. […] Dissociation of bound [^35 S]TBPS was initiated by 2 micromolar TBPS in all cases.

BZ receptor = experiment: modulation of [3H] flunitrazepam binding; parameters: species or system rat; settings: pentobarbital 1.0 millimolar; 0.25 nM [3H]FLU; absence of GABA
[2] = test system: metrazol-induced convulsions in mice; experiment: metrazol-induced convulsions; format: in vivo; settings: Mus musculus, metrazol 85 mg/kg, 95% confidence limits, read-out: MTZ (metrazol) ED50
Protocol: (§1) Experiments were also performed to determine the physiological relevance of these interactions by measuring the ability of the compounds of and used in the invention to modulate TBPS-induced convulsions in Swiss-Webster mice. […] The time to onset of myoclonus (presence of forelimb clonic activity) induced by TBPS was determined by observing each mouse for a period of 45 minutes. Significant differences between the time to onset in control mice vs. steroid-treated mice were determined by Student's t-test. […] The number of animals with tonic and/or clonic convulsions was recorded. In the maximal electroshock test, 50 mA of current at 60 Hz was delivered through corneal electrodes for 200 msec. […] The ED50 (the dose at which the half-maximal effect occurs) dose was determined for each screen.

[3] = test system: (+)bicuculline-induced seizures in mice; experiment: animal or person; format: in vivo
Protocol: as §1

[4] = test system: picrotoxin-induced convulsions in mice; experiment: picrotoxin-induced convulsions; format: in vivo; settings: Mus musculus, read-out: PICRO (picrotoxin) ED50
Protocol: as §1

[5] = test system: strychnine-induced convulsions in mice; experiment: strychnine-induced convulsions; format: in vivo; settings: Mus musculus, read-out: STR (strychnine) ED50
Protocol: as §1

progesterone receptor = biological target: T1, progesterone receptor (Rattus norvegicus, UniProt Q63449); experiment: [3H]R5020 binding to the progesterone receptor in rat uterus; settings: FIG. 5
T1 sequence (Q63449 1-923): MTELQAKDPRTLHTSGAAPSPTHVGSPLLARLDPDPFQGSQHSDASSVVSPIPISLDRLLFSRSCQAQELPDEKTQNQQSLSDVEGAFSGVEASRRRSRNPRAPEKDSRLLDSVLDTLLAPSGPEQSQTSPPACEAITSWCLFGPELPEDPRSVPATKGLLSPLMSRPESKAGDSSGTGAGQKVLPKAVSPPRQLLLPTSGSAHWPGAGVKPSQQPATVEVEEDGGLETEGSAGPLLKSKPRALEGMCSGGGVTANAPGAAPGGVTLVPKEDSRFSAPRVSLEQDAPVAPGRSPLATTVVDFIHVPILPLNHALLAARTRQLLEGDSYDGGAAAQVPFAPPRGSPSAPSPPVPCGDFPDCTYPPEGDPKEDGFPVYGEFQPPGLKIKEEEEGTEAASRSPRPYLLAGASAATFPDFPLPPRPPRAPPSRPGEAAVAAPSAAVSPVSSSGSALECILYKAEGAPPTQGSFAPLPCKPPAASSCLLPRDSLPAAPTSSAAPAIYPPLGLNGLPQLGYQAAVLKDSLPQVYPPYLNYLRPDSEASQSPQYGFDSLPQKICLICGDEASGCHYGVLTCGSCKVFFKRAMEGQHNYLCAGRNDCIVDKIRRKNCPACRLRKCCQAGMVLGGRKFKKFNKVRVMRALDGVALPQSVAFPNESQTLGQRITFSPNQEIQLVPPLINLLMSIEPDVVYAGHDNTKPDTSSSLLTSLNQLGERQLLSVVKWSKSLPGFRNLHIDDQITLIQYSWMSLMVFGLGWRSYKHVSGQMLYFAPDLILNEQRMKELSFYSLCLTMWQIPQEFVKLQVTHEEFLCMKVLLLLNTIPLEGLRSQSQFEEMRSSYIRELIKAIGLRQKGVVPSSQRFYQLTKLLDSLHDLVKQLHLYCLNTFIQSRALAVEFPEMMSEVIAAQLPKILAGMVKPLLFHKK
Text: The data plotted in FIG. 5 were obtained by performing assays in accordance with the procedures outlined above to determine the effect of progesterone metabolites and the progestin R5020 on the binding of [^3 H]R5020 to the progesterone receptor in rat uterus. All points on the plot of FIG. 5 represent the mean of triplicate determinations. The following compounds are those listed in FIG. 5: 5-alpha-pregnan-3-alpha-ol-20-one (DHP), 5-alpha-pregnan-3-alpha,21-diol-20-one (Th-DOC), and 5-beta-pregnane-3-alpha,20 diol (5 BETA).

acute LD50 = settings: mouse, in vivo
mice [6] = experiment: acute LD50; settings: mice
mice [7] = experiment: rotorod test (sedative potential)

SMILES: CC(=O)[C@H]1CC[C@H]2[C@@H]3CC[C@H]4C[C@H](O)CC[C@]4(C)[C@H]3CC[C@]12C [3α-hydroxy-5α-pregnan-20-one]
- Total percentage of specific sites, rapidly dissociating (R) ([1]; (**P < 0.01 vs control), alphaxalone 300 nM, 3a-OH-DHP 20 nM): 35 ± 3 percentage
- Total percentage of specific sites, slowly dissociating (S) ([1]; (*P < 0.05 vs control), alphaxalone 300 nM, 3a-OH-DHP 20 nM): 68 ± 3 percentage
- k-1, slowly dissociating component (S) ([1]; [35S]TBPS dissociation, pentobarbital 30 nM [sic], alphaxalone 300 nM, 3a-OH-DHP 20 nM): 0.011 min⁻¹
- effect on dissociation mechanism/kinetics of [35S]TBPS (in words) [1]: absent
- effect on dissociation mechanism/kinetics of [35S]TBPS (in words) ([1]; listed as 5-alpha-pregnan-3-alpha-ol-20-one): do not influence the dissociation kinetics
- interaction with pentobarbital in enhancement of [3H] flunitrazepam binding (BZ receptor): does not interact with pentobarbital
- ED50 [2]: 18.8 ± 1.1 mg/kg
- ED50 ([3]; Mus musculus, (+)bicuculline 2.7 mg/kg, 95% confidence limits, read-out: BIC (bicuculline) ED50): 4.1 ± 1.7 mg/kg
- anticonvulsant effectiveness (in words) ([3]; compared with clinically useful anticonvulsants, Table 3): highly effective with a profile similar to that of the benzodiazepine clonazepam
- ED50 [4]: 31.7 ± 1.1 mg/kg
- ED50 [5]: > 300 mg/kg
- affinity for the progesterone receptor (progesterone receptor): lack of affinity
- LD50 (acute LD50): > 500 mg/kg
- toxicity (in words) (mice [6]): very low toxicity
- sedative liability at anticonvulsant doses (mice [7]; ED50 rotorod versus (+)bicuculline-induced seizures): low
- Rotorod (RR) ED50 (mice [7]; mice, 10 minutes after injection, 6 rpm rod): 40-100
